# Test: Lipophilicity, log D of the compound at pH 7.4
# Type: physicochemical
# Details: buffer
row,SMILES,logD
1,COCCS(=O)(=O)Nc1cc(-c2sc(NC(C)=O)nc2C)cc2c1C(=O)N([C@@H](C)C1CC1)C2,3.5
2,CC(=O)Nc1nc(C)c(-c2cc3c(c(S(=O)(=O)CCCO)c2)C(=O)N([C@@H](C)C2CC2)C3)s1,1.9
3,CC(=O)Nc1nc(C)c(-c2cc(C)c3c(c2)CN([C@@H](C)C2CC2)C3=O)s1,4.3
4,CC(=O)Nc1nc(C)c(-c2cc3c(c(NS(C)(=O)=O)c2)C(=O)N([C@@H](C)C2CC2)C3)s1,3.3
5,COCCNS(=O)(=O)c1cc(-c2sc(NC(C)=O)nc2C)cc2c1C(=O)N([C@@H](C)C1CC1)C2,2.7
6,C[C@@H](C1CC1)N1Cc2cc(-c3cnc(N)nc3)cc(Cl)c2C1=O,2.6
7,CC(=O)Nc1nc(C)c(-c2cc3c(c(S(C)(=O)=O)c2)C(=O)N([C@@H](C)C2CC2)C3)s1,2.4
8,Cc1cc(-c2cnc3[nH]ccc3n2)cc2c1C(=O)N([C@@H](C)C1CC1)C2,4.3
9,CC(=O)Nc1nc(C)c(-c2cc3c(c(S(N)(=O)=O)c2)C(=O)N([C@@H](C)C2CC2)C3)s1,2.5
10,CC(=O)Nc1ncc(-c2cc(Cl)c3c(c2)CN([C@@H](C)C2CC2)C3=O)s1,3.8
11,Cc1cc(-c2nccnc2N)cc2c1C(=O)N([C@@H](C)C1CC1)C2,2.6
12,CNS(=O)(=O)c1cc(-c2sc(NC(C)=O)nc2C)cc2c1C(=O)N([C@@H](C)C1CC1)C2,3
13,CNC(=O)c1nc(-c2cc(C)c3c(c2)CN([C@@H](C)C2CC2)C3=O)cnc1N,3.8
14,CC(=O)Nc1nc(C)c(-c2cc(Cl)c3c(c2)CN([C@H](C)C2CC2)C3=O)s1,3.9
15,CC(=O)Nc1nc(C)c(-c2cc(Cl)c3c(c2)CN([C@@H](C)C2CC2)C3=O)s1,3.9

# Test: Intrinsic clearance in rat hepatocytes assessed as per million cells
# Type: ADME, cell-based, Hepatocyte
# Details: read-out: CLH
row,SMILES,hepatocyte CLint
1,COCCS(=O)(=O)Nc1cc(-c2sc(NC(C)=O)nc2C)cc2c1C(=O)N([C@@H](C)C1CC1)C2,166 µL/min/1e6 cells
2,CC(=O)Nc1nc(C)c(-c2cc3c(c(S(=O)(=O)CCCO)c2)C(=O)N([C@@H](C)C2CC2)C3)s1,6 µL/min/1e6 cells
3,CC(=O)Nc1nc(C)c(-c2cc(C)c3c(c2)CN([C@@H](C)C2CC2)C3=O)s1,11 µL/min/1e6 cells
4,CC(=O)Nc1nc(C)c(-c2cc3c(c(NS(C)(=O)=O)c2)C(=O)N([C@@H](C)C2CC2)C3)s1,3.7 to 4 µL/min/1e6 cells
5,COCCNS(=O)(=O)c1cc(-c2sc(NC(C)=O)nc2C)cc2c1C(=O)N([C@@H](C)C1CC1)C2,56 µL/min/1e6 cells
6,C[C@@H](C1CC1)N1Cc2cc(-c3cnc(N)nc3)cc(Cl)c2C1=O,2 µL/min/1e6 cells
7,CC(=O)Nc1nc(C)c(-c2cc3c(c(S(C)(=O)=O)c2)C(=O)N([C@@H](C)C2CC2)C3)s1,1.7 to 2 µL/min/1e6 cells
8,Cc1cc(-c2cnc3[nH]ccc3n2)cc2c1C(=O)N([C@@H](C)C1CC1)C2,146 µL/min/1e6 cells
9,CC(=O)Nc1nc(C)c(-c2cc3c(c(S(N)(=O)=O)c2)C(=O)N([C@@H](C)C2CC2)C3)s1,< 2 µL/min/1e6 cells
10,CC(=O)Nc1ncc(-c2cc(Cl)c3c(c2)CN([C@@H](C)C2CC2)C3=O)s1,2 µL/min/1e6 cells
11,Cc1cc(-c2nccnc2N)cc2c1C(=O)N([C@@H](C)C1CC1)C2,43 µL/min/1e6 cells
12,CNS(=O)(=O)c1cc(-c2sc(NC(C)=O)nc2C)cc2c1C(=O)N([C@@H](C)C1CC1)C2,4.5 to 5 µL/min/1e6 cells
13,CNC(=O)c1nc(-c2cc(C)c3c(c2)CN([C@@H](C)C2CC2)C3=O)cnc1N,4 µL/min/1e6 cells
14,CC(=O)Nc1nc(C)c(-c2cc(Cl)c3c(c2)CN([C@H](C)C2CC2)C3=O)s1,6 µL/min/1e6 cells
15,CC(=O)Nc1nc(C)c(-c2cc(Cl)c3c(c2)CN([C@@H](C)C2CC2)C3=O)s1,3 µL/min/1e6 cells

# Test: Intrinsic clearance in human hepatocytes assessed as per million cells
# Type: ADME, cell-based, Hepatocyte
# Details: read-out: CLH
row,SMILES,hepatocyte CLint
1,CC(=O)Nc1nc(C)c(-c2cc3c(c(NS(C)(=O)=O)c2)C(=O)N([C@@H](C)C2CC2)C3)s1,3.4 µL/min/1e6 cells
2,CC(=O)Nc1nc(C)c(-c2cc3c(c(S(C)(=O)=O)c2)C(=O)N([C@@H](C)C2CC2)C3)s1,0.4 µL/min/1e6 cells
3,CNS(=O)(=O)c1cc(-c2sc(NC(C)=O)nc2C)cc2c1C(=O)N([C@@H](C)C1CC1)C2,0.5 µL/min/1e6 cells

# Test: Intrinsic clearance in dog hepatocytes assessed as per million cells
# Type: ADME, cell-based, Canis lupus familiaris, Hepatocyte
# Details: read-out: CLH
row,SMILES,hepatocyte CLint
1,CC(=O)Nc1nc(C)c(-c2cc3c(c(NS(C)(=O)=O)c2)C(=O)N([C@@H](C)C2CC2)C3)s1,7.6 µL/min/1e6 cells
2,CC(=O)Nc1nc(C)c(-c2cc3c(c(S(C)(=O)=O)c2)C(=O)N([C@@H](C)C2CC2)C3)s1,1 µL/min/1e6 cells
3,CNS(=O)(=O)c1cc(-c2sc(NC(C)=O)nc2C)cc2c1C(=O)N([C@@H](C)C1CC1)C2,2.1 µL/min/1e6 cells

# Test: Clearance in rat
# Type: ADME, organism-based
# Details: in vivo
row,SMILES,clearance
1,CC(=O)Nc1nc(C)c(-c2cc3c(c(NS(C)(=O)=O)c2)C(=O)N([C@@H](C)C2CC2)C3)s1,0.7 mL/min/kg
2,CC(=O)Nc1nc(C)c(-c2cc3c(c(S(C)(=O)=O)c2)C(=O)N([C@@H](C)C2CC2)C3)s1,6.3 mL/min/kg
3,CNS(=O)(=O)c1cc(-c2sc(NC(C)=O)nc2C)cc2c1C(=O)N([C@@H](C)C1CC1)C2,4.4 mL/min/kg

# Test: Half life in rat
# Type: ADME, organism-based
# Details: in vivo
row,SMILES,half-life
1,CC(=O)Nc1nc(C)c(-c2cc3c(c(NS(C)(=O)=O)c2)C(=O)N([C@@H](C)C2CC2)C3)s1,6.7 h
2,CC(=O)Nc1nc(C)c(-c2cc3c(c(S(C)(=O)=O)c2)C(=O)N([C@@H](C)C2CC2)C3)s1,2.3 h
3,CNS(=O)(=O)c1cc(-c2sc(NC(C)=O)nc2C)cc2c1C(=O)N([C@@H](C)C1CC1)C2,2.6 h

# Test: Oral bioavailability in rat
# Type: ADME, organism-based
# Details: in vivo
row,SMILES,bioavailability
1,CC(=O)Nc1nc(C)c(-c2cc3c(c(NS(C)(=O)=O)c2)C(=O)N([C@@H](C)C2CC2)C3)s1,49%
2,CC(=O)Nc1nc(C)c(-c2cc3c(c(S(C)(=O)=O)c2)C(=O)N([C@@H](C)C2CC2)C3)s1,51%
3,CNS(=O)(=O)c1cc(-c2sc(NC(C)=O)nc2C)cc2c1C(=O)N([C@@H](C)C1CC1)C2,30%

# Test: Volume of distribution at steady state in rat
# Type: ADME, organism-based
# Details: in vivo, read-out: Vdss
row,SMILES,Vd
1,CC(=O)Nc1nc(C)c(-c2cc3c(c(NS(C)(=O)=O)c2)C(=O)N([C@@H](C)C2CC2)C3)s1,0.4 L/kg
2,CC(=O)Nc1nc(C)c(-c2cc3c(c(S(C)(=O)=O)c2)C(=O)N([C@@H](C)C2CC2)C3)s1,1.2 L/kg
3,CNS(=O)(=O)c1cc(-c2sc(NC(C)=O)nc2C)cc2c1C(=O)N([C@@H](C)C1CC1)C2,1 L/kg

# Test: Clearance in dog
# Type: ADME, organism-based, Canis lupus familiaris
# Details: in vivo
row,SMILES,clearance
1,CC(=O)Nc1nc(C)c(-c2cc3c(c(NS(C)(=O)=O)c2)C(=O)N([C@@H](C)C2CC2)C3)s1,6.2 mL/min/kg
2,CNS(=O)(=O)c1cc(-c2sc(NC(C)=O)nc2C)cc2c1C(=O)N([C@@H](C)C1CC1)C2,2.1 mL/min/kg

# Test: Half life in dog
# Type: ADME, organism-based, Canis lupus familiaris
# Details: in vivo
row,SMILES,half-life
1,CC(=O)Nc1nc(C)c(-c2cc3c(c(NS(C)(=O)=O)c2)C(=O)N([C@@H](C)C2CC2)C3)s1,1.3 h
2,CC(=O)Nc1nc(C)c(-c2cc3c(c(S(C)(=O)=O)c2)C(=O)N([C@@H](C)C2CC2)C3)s1,3.9 h
3,CNS(=O)(=O)c1cc(-c2sc(NC(C)=O)nc2C)cc2c1C(=O)N([C@@H](C)C1CC1)C2,12 h

# Test: Oral bioavailability in dog
# Type: ADME, organism-based, Canis lupus familiaris
# Details: in vivo
row,SMILES,bioavailability
1,CC(=O)Nc1nc(C)c(-c2cc3c(c(NS(C)(=O)=O)c2)C(=O)N([C@@H](C)C2CC2)C3)s1,1.6%
2,CNS(=O)(=O)c1cc(-c2sc(NC(C)=O)nc2C)cc2c1C(=O)N([C@@H](C)C1CC1)C2,44%

# Test: Volume of distribution at steady state in dog
# Type: ADME, organism-based, Canis lupus familiaris
# Details: in vivo, read-out: Vdss
row,SMILES,Vd
1,CC(=O)Nc1nc(C)c(-c2cc3c(c(NS(C)(=O)=O)c2)C(=O)N([C@@H](C)C2CC2)C3)s1,0.7 L/kg
2,CC(=O)Nc1nc(C)c(-c2cc3c(c(S(C)(=O)=O)c2)C(=O)N([C@@H](C)C2CC2)C3)s1,1.1 L/kg
3,CNS(=O)(=O)c1cc(-c2sc(NC(C)=O)nc2C)cc2c1C(=O)N([C@@H](C)C1CC1)C2,2.2 L/kg

# Reference: ChEMBL document CHEMBL4118226, “Discovery of Highly Isoform Selective Orally Bioavailable Phosphoinositide 3-Kinase (PI3K)-γ Inhibitors” (J Med Chem, 2018)
